Experiments:
Format in all cases: functional
[1] = test system: A549; test: Inhibition of growth of human NSCL non small cell lung carcinoma cell line ([…]) after 72 hr of drug exposure
[2] = test system: A121; test: Inhibition of growth of human ovarian tumor cell line (A121) after 72 hr of drug exposure
[3] = test system: HT-29; test: Inhibition of growth of human colon tumor cell line (HT-29) after 72 hr of drug exposure
[4] = test system: MCF7R; test: Inhibition the growth of doxorubicin resistant human breast tumor cell line (MCF-7-R) after 72 hr of drug exposure
[5] = test system: MCF7; test: Inhibition of the growth of human breast tumor cell line (MCF-7) after 72 hr of drug exposure

Row | IC50 [4] [nM] | Structure (SMILES) | Inhibition [1] [%] | Inhibition [2] [%] | Inhibition [3] [%] | Inhibition [5] [%]
1 | 450 | CC(=O)O[C@H]1C(=O)[C@@]2(C)C([C@H](OC(=O)c3ccccc3)[C@]3(O)CC(OC(=O)[C@H](O)[C@@H](NC(=O)c4ccccc4)c4ccccc4)C(C)=C1C3(C)C)[C@]1(OC(C)=O)CO[C@@H]1C[C@@H]2OC(=O)CCc1cccc(C(=O)c2ccccc2)c1 (stereo not given in full) | 13 | 8.8 | 6.5 | 2.4
2 | 300 | CC(=O)O[C@H]1C(=O)[C@@]2(C)[C@H]([C@H](OC(=O)c3ccccc3)[C@]3(O)C[C@H](OC(=O)[C@H](O)[C@@H](NC(=O)c4ccccc4)c4ccccc4)C(C)=C1C3(C)C)[C@]1(OC(C)=O)CO[C@@H]1C[C@@H]2O [PACLITAXEL] | 3.6 | 6.1 | 3.2 | 1.7
3 | 1540 | CC(=O)O[C@@]12CO[C@@H]1C[C@H](O)[C@@]1(C)C(=O)[C@H](OC(=O)CCc3cccc(C(=O)c4ccccc4)c3)C3=C(C)C(OC(=O)[C@H](O)[C@@H](NC(=O)c4ccccc4)c4ccccc4)C[C@@](O)([C@@H](OC(=O)c4ccccc4)C12)C3(C)C (stereo not given in full) | 40.8 | 32.8 | 40.8 | 20.7
